This passage reports AC50 results from ChEMBL document CHEMBL5291721, “A preclinical secondary pharmacology resource illuminates target-adverse drug reaction associations of marketed drugs” (Nat Commun, 2023).

For assay [1], the target named is T1, Alpha-1A adrenergic receptor (Homo sapiens, UniProt P35348).
T1 sequence (P35348 whole entry): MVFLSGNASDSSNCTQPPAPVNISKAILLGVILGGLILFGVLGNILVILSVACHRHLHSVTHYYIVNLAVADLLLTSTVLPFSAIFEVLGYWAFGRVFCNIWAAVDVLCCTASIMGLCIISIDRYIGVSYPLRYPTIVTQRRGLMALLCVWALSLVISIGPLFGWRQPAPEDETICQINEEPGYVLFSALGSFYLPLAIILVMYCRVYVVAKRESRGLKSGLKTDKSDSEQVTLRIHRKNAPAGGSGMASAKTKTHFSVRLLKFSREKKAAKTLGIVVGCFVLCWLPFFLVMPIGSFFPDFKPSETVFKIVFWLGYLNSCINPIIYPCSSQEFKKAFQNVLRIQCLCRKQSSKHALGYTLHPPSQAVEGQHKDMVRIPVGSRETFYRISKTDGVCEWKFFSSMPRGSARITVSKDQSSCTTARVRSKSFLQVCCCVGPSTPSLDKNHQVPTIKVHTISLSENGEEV

The target of assay [2] is T2, Alpha-2B adrenergic receptor (Homo sapiens, UniProt P18089).
T2 sequence (P18089 whole entry): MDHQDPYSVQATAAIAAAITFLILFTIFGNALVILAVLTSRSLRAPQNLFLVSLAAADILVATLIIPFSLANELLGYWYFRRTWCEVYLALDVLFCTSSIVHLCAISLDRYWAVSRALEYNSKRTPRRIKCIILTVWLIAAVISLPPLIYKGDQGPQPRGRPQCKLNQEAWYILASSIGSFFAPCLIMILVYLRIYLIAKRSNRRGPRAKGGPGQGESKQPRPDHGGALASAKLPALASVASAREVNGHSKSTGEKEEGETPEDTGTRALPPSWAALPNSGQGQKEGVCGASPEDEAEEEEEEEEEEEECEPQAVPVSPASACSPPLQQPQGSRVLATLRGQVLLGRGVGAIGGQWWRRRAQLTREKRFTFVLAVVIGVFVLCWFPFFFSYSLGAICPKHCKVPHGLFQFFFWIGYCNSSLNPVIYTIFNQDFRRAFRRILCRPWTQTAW

Assay [3] concerns the target Beta-3 adrenergic receptor (Homo sapiens, UniProt P13945).
The next assay has as its target T3, B1 bradykinin receptor (Homo sapiens, UniProt P46663).
T3 sequence (P46663 whole entry): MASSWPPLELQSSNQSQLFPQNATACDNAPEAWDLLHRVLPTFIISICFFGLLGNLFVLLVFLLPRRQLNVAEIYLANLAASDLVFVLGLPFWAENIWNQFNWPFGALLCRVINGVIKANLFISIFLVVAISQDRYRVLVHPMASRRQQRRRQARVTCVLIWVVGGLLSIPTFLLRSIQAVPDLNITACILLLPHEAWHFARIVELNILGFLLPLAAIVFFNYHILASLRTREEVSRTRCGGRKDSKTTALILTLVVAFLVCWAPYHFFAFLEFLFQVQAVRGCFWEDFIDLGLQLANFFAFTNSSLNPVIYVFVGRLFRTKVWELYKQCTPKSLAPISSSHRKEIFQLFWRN

Assay [4] addresses Voltage-dependent L-type calcium channel subunit alpha-1C (Rattus norvegicus, UniProt P22002). The format is functional.
The target of another assay is Melanocortin receptor 4 (Homo sapiens, UniProt P32245).
Sequence of Melanocortin receptor 4 (P32245 whole entry): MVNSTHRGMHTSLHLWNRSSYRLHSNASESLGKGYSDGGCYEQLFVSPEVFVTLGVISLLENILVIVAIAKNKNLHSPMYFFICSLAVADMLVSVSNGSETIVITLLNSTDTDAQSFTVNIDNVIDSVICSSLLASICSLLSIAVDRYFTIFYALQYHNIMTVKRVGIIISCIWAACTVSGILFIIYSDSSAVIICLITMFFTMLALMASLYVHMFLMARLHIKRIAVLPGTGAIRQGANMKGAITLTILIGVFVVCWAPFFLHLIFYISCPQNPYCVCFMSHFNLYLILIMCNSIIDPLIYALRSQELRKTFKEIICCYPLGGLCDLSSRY
In assay [5] the target is T4, Neuropeptide Y receptor type 2 (Homo sapiens, UniProt P49146).
T4 sequence (P49146 whole entry): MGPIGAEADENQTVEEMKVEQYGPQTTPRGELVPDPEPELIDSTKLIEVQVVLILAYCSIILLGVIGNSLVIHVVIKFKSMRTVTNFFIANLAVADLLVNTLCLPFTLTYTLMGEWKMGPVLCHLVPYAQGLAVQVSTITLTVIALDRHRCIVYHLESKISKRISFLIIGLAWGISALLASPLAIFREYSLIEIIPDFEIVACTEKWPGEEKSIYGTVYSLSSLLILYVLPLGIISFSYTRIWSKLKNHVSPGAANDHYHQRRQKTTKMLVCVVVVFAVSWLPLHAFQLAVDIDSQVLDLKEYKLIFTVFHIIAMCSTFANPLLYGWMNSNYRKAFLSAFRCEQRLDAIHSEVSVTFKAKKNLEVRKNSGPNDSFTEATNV

The next assay addresses T5, Glucocorticoid receptor (Homo sapiens, UniProt P04150).
T5 sequence (P04150 whole entry): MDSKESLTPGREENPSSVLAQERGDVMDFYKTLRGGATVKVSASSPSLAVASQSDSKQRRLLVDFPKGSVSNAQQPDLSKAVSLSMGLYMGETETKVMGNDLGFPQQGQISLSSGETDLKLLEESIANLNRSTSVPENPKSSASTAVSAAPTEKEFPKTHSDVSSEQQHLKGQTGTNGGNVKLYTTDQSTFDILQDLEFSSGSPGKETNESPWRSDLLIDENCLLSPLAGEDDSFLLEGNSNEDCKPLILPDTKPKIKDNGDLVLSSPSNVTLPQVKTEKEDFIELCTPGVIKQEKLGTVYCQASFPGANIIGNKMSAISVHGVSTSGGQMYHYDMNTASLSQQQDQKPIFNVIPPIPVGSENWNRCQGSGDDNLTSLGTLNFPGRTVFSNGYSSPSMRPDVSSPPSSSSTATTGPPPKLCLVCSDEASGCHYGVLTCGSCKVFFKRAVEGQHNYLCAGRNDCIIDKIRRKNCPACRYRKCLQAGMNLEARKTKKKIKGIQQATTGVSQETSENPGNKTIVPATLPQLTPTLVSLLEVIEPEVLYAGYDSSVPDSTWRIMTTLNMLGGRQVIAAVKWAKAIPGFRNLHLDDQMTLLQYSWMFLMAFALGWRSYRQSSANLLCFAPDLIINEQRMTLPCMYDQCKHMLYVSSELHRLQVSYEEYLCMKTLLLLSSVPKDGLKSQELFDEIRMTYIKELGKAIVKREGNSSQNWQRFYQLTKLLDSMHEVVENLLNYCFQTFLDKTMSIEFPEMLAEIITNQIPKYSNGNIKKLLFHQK

In general, AC50 refers to the concentration giving half of the maximal activity seen.
Further: assay procedure not described here.

Sequence of Voltage-dependent L-type calcium channel subunit alpha-1C (P22002 whole entry): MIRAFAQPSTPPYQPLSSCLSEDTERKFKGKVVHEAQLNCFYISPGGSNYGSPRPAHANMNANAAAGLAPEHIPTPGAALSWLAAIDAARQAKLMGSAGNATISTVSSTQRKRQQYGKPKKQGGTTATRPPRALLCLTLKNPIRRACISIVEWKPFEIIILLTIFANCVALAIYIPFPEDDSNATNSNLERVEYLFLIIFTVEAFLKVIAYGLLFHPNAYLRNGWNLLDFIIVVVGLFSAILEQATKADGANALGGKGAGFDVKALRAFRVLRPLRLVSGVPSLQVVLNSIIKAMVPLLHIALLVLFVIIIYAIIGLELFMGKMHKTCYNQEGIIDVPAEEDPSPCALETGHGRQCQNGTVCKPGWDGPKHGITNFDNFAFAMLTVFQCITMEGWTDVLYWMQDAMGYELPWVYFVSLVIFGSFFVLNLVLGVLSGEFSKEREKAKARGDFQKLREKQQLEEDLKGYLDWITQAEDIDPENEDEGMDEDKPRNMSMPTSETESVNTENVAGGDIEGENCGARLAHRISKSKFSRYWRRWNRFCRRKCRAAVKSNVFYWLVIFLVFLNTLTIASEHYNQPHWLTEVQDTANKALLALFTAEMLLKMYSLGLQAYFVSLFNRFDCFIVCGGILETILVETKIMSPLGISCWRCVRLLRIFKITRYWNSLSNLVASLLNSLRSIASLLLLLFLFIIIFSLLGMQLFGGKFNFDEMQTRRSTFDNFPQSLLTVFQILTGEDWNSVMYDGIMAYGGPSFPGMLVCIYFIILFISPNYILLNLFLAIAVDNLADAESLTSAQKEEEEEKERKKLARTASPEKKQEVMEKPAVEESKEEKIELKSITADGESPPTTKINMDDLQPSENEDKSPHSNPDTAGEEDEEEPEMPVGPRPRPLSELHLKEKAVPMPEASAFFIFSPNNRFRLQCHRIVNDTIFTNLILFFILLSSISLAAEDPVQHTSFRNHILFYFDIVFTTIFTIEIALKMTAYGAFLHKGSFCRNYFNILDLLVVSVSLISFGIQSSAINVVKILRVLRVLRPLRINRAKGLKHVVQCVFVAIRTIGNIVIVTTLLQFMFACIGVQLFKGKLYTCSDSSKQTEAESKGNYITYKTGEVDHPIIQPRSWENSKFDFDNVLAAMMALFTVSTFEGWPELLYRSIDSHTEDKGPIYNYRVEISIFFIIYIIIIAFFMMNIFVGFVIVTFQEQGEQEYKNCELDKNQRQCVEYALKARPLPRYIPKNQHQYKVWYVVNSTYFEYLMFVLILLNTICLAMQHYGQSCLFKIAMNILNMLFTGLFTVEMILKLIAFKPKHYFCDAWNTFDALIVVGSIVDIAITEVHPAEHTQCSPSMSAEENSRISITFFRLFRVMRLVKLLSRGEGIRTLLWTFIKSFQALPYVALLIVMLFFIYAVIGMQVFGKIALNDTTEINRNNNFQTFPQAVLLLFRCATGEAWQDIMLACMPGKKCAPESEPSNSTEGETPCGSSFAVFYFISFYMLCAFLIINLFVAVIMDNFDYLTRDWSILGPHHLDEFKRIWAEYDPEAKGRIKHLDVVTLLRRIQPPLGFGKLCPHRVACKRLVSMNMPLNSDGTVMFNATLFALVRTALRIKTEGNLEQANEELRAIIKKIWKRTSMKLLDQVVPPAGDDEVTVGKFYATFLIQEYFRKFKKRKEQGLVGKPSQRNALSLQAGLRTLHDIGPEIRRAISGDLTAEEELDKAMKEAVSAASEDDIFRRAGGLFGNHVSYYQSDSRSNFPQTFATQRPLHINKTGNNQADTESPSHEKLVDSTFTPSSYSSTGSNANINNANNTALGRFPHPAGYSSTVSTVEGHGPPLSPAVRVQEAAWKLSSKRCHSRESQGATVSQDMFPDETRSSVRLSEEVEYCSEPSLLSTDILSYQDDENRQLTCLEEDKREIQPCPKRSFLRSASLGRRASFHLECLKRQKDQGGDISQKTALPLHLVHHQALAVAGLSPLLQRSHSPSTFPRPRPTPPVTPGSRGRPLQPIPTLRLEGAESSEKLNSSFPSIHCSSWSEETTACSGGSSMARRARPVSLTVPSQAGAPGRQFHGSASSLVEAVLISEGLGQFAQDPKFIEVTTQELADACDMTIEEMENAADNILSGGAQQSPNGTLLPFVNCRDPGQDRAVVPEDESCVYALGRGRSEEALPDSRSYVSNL
Sequence of Beta-3 adrenergic receptor (P13945 whole entry): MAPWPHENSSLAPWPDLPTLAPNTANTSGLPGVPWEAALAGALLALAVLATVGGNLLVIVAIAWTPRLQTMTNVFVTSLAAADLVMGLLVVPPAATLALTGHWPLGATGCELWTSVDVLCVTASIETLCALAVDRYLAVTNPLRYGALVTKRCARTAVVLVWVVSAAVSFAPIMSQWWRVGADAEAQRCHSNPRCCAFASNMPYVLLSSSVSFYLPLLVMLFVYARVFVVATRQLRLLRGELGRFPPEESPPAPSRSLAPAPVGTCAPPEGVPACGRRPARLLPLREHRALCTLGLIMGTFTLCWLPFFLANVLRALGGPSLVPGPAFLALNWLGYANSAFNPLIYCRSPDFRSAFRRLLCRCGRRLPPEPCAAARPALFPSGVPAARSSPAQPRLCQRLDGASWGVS

Turning to `CCCc1nc2c(C)cc(-c3nc4ccccc4n3C)cc2n1Cc1ccc(-c2ccccc2C(=O)O)cc1`, the AC50 in assay [1] was greater than 10 µM; in assay [2], greater than 30 µM; in assay [3], greater than 30 µM; at B1 bradykinin receptor, greater than 30 µM; in assay [4], greater than 30 µM; on Melanocortin receptor 4, greater than 30 µM. For the same compound, the AC50 (in assay [5]; on Glucocorticoid receptor) was greater than 30 µM in each case.

As to `CCCNC(=O)NS(=O)(=O)c1ccc(Cl)cc1` [CHLORPROPAMIDE], the AC50 in assay [1] is 5.7 µM; in assay [3], greater than 30 µM; at B1 bradykinin receptor, greater than 30 µM; in assay [4], greater than 10 µM; at Melanocortin receptor 4, greater than 30 µM; in assay [5] it was greater than 30 µM. The compound further yielded an AC50 at Glucocorticoid receptor greater than 30 µM.

Take `O=C(O)Cc1ccccc1Oc1ccc(Cl)cc1Cl` [FENCLOFENAC]: the AC50 was greater than 10 µM in assay [1]; greater than 10 µM in assay [2]; greater than 30 µM in assay [3]; greater than 30 µM at B1 bradykinin receptor; greater than 10 µM in assay [4]; greater than 30 µM on Melanocortin receptor 4. The AC50 (in assay [5]; at Glucocorticoid receptor) was greater than 30 µM throughout.

For the compound `CC[C@H](C)C(=O)O[C@H]1C[C@@H](C)C=C2C=C[C@H](C)[C@H](CC[C@@H]3C[C@@H](O)CC(=O)O3)[C@H]21` [LOVASTATIN], the AC50 in assay [1] is greater than 10 µM; in assay [3] it was 11.6 µM; on B1 bradykinin receptor, greater than 30 µM; in assay [4] it was greater than 10 µM; at Melanocortin receptor 4, greater than 30 µM; in assay [5] it was greater than 30 µM. The compound also showed an AC50 on Glucocorticoid receptor greater than 30 µM.

Regarding `CC(C)[C@H](N)C(=O)OCCOCn1cnc2c(=O)[nH]c(N)nc21` [VALACYCLOVIR], the AC50 in assay [1] was greater than 10 µM; in assay [3], greater than 30 µM; on B1 bradykinin receptor it was greater than 30 µM; in assay [4] it was greater than 10 µM; on Melanocortin receptor 4, greater than 30 µM; in assay [5] it was greater than 30 µM. Besides, on Glucocorticoid receptor, the AC50 was greater than 30 µM.

For `O=C1Cc2cc(CCN3CCN(c4nsc5ccccc45)CC3)c(Cl)cc2N1` [ZIPRASIDONE], the half-maximal activity concentration (AC50) in assay [1] was 0.0275 µM; in assay [3] it was greater than 30 µM; on B1 bradykinin receptor it was greater than 30 µM; in assay [4], greater than 10 µM; at Melanocortin receptor 4, greater than 30 µM; in assay [5], greater than 30 µM. Moreover, the AC50 on Glucocorticoid receptor was greater than 30 µM.
